Tests used:
Gamma-secretase = assay: Inhibition of gamma secretase-mediated beta-APP cleavage in human H4 cells assessed by measuring Abeta40 production by ELISA; type: cell-based
Mus musculus [1] = assay: Decrease in amyloid beta level in Tg2576 betaAPP swedish transgenic mouse brain at 500 umol/kg, po after 3 hrs; type: functional; design: scale not given: the % may be the effect or the level left
[2] = Drug level in Tg2576 betaAPP swedish transgenic mouse plasma at 500 umol/kg, po after 3 hrs; type: ADME, organism-based
[3] = Drug level in Tg2576 betaAPP swedish transgenic mouse brain at 500 umol/kg, po after 3 hrs; type: ADME, organism-based; conditions: read-out: Drug uptake
Mus musculus [4] = assay: Decrease in amyloid beta level in Tg2576 betaAPP swedish transgenic mouse brain at 500 umol/kg, sc twice a day for 5 days; type: functional; design: scale not given: the % may be the effect or the level left
[5] = Drug level in Tg2576 betaAPP swedish transgenic mouse plasma at 500 umol/kg, sc twice a day for 5 days; type: ADME, organism-based
[6] = Drug level in Tg2576 betaAPP swedish transgenic mouse brain at 500 umol/kg, sc twice a day for 5 days; type: ADME, organism-based; conditions: read-out: Drug uptake
[7] = Protein binding in mouse plasma at 10 ug/mL; type: ADME, cell-free; conditions: read-out: PPB
[8] = Protein binding in rat plasma at 10 ug/mL; type: ADME, cell-free; conditions: read-out: PPB
[9] = Protein binding in human plasma at 10 ug/mL; type: ADME, cell-free; conditions: read-out: PPB

SMILES	IC50 (Gamma-secretase) [nM]	other results
CCN(c1cc(Cl)ccc1CO)S(=O)(=O)c1ccc(Cl)cc1	13	–
Cc1ccc(S(=O)(=O)N(CCC(C)(C)C)c2cc(Cl)ccc2CO)cc1	2000	–
CC(c1ccc2ccccc2c1)N(c1cc(Cl)ccc1CO)S(=O)(=O)c1ccc(Cl)cc1 (centres undefined)	100	–
CCN(c1cc(Cl)ccc1CO)S(=O)(=O)c1ccc(C)cc1	1100	–
CC(C)CC(C)N(c1cc(Cl)ccc1CO)S(=O)(=O)c1ccc(Cl)cc1 (centres undefined)	23	–
CC(C1CC1)N(c1cc(Cl)ccc1CO)S(=O)(=O)c1ccc(Cl)cc1 (centres undefined)	49	–
CCCCN(c1cc(Cl)ccc1CO)S(=O)(=O)c1ccc(Cl)cc1	140	–
Cc1ccc(S(=O)(=O)N(c2cc(Cl)ccc2CO)C(C)C2CCCCC2)cc1 (centres undefined)	190	–
CCCC(C)N(c1cc(Cl)ccc1CO)S(=O)(=O)c1ccc(Cl)cc1Cl (centres undefined)	560	–
CC(C1CCC1)N(c1cc(Cl)ccc1CO)S(=O)(=O)c1ccc(Cl)cc1 (centres undefined)	12	–
CCCN(c1cc(Cl)ccc1CO)S(=O)(=O)c1ccc(C)cc1	750	–
C/C=C/C(C)N(c1cc(Cl)ccc1CO)S(=O)(=O)c1ccc(Cl)cc1 (centres undefined)	140	–
CCCC(C)N(c1cc(Cl)ccc1CO)S(=O)(=O)c1c(Cl)cc(Cl)cc1Cl (centres undefined)	> 25000	–
CC[C@@H](C)N(c1cc(Cl)ccc1CO)S(=O)(=O)c1ccc(C)cc1	100	–
Cc1ccc(S(=O)(=O)N(CC2CCCCC2)c2cc(Cl)ccc2CO)cc1	1000	–
CC(c1ccc(Cl)cc1)N(c1cc(Cl)ccc1CO)S(=O)(=O)c1ccc(Cl)cc1 (centres undefined)	22	–
CC(CCCF)N(c1cc(Cl)ccc1CO)S(=O)(=O)c1ccc(Cl)cc1 (centres undefined)	7	–

SMILES	IC50 (Gamma-secretase) [nM]	other results
Cc1ccc(S(=O)(=O)N(c2cc(Cl)ccc2CO)C(C)CC(C)(C)C)cc1 (centres undefined)	350	–
CCCC(C)N(c1cc(Cl)ccc1CO)S(=O)(=O)c1ccc(C(F)(F)F)cc1 (centres undefined)	72	–
CC(C1CCCC1)N(c1cc(Cl)ccc1CO)S(=O)(=O)c1ccc(Cl)cc1 (centres undefined)	14	–
CC(CCF)N(c1cc(Cl)ccc1CO)S(=O)(=O)c1ccc(Cl)cc1 (centres undefined)	25	–
C=C(C)CN(c1cc(Cl)ccc1CO)S(=O)(=O)c1ccc(C)cc1	400	–
CC(C1CCCCC1)N(c1cc(Cl)ccc1CO)S(=O)(=O)c1ccc(Cl)cc1 (centres undefined)	33	–
CCC[C@@H](C)N(c1cc(Cl)ccc1CO)S(=O)(=O)c1ccc(Cl)cc1	–	Activity (Mus musculus [1]): 25%; concentration at 3 h [2]: 1.6 µM; concentration at 3 h [3]: 5.2 µM; Activity (Mus musculus [4]): 38%; concentration at 120 h [5]: 21 µM; concentration at 120 h [6]: 14 µM; fraction unbound at 10 ug/mL [7]: < 0.01; fraction unbound at 10 ug/mL [8]: < 0.01; fraction unbound at 10 ug/mL [9]: < 0.01
C=CC[C@@H](C)N(c1cc(Cl)ccc1CO)S(=O)(=O)c1ccc(Cl)cc1	14	–
CC(Cc1ccccc1)N(c1cc(Cl)ccc1CO)S(=O)(=O)c1ccc(Cl)cc1 (centres undefined)	41	–
CCCCN(c1cc(Cl)ccc1CO)S(=O)(=O)c1ccc(C)cc1	1300	–
CCC(CC)N(c1cc(Cl)ccc1CO)S(=O)(=O)c1ccc(C)cc1	1000	–
Cc1ccc(S(=O)(=O)N(CCCC(C)C)c2cc(Cl)ccc2CO)cc1	920	–
Cc1ccc(S(=O)(=O)N(CC(C)C)c2cc(Cl)ccc2CO)cc1	700	–
CCCC[C@@H](C)N(c1cc(Cl)ccc1CO)S(=O)(=O)c1ccc(Cl)cc1	5	–
CC[C@H](C)N(c1cc(Cl)ccc1CO)S(=O)(=O)c1ccc(C)cc1	1300	–
C[C@H](CCc1ccccc1)N(c1cc(Cl)ccc1CO)S(=O)(=O)c1ccc(Cl)cc1	4	–

Now from value to compound, other results behind:

IC50 (Gamma-secretase) [nM]	SMILES	other results
3700	CCC[C@H](C)N(c1cc(Cl)ccc1CO)S(=O)(=O)c1ccc(C)cc1	–
66	CCCC(C)N(c1cc(Cl)ccc1CO)S(=O)(=O)c1ccc(F)cc1 (centres undefined)	–
240	CCCC(C)N(c1cc(Cl)ccc1CO)S(=O)(=O)c1ccc(Cl)c(Cl)c1 (centres undefined)	–
180	CCCC(C)N(c1cc(Cl)ccc1CO)S(=O)(=O)c1ccc(C#N)cc1 (centres undefined)	–
19	CCCC(C)N(c1cc(Cl)ccc1CO)S(=O)(=O)c1ccc(Cl)cc1 (centres undefined)	–
56	CCCC(C)N(c1cc(Cl)ccc1CO)S(=O)(=O)c1ccc(Br)cc1 (centres undefined)	–
1300	CCCC(C)N(c1cc(Cl)ccc1CO)S(=O)(=O)c1ccc(OC)cc1 (centres undefined)	–
1200	CCCC(C)N(c1cc(Cl)ccc1CO)S(=O)(=O)c1ccccc1 (centres undefined)	–
24	CCC[C@@H](C)N(c1cc(Cl)ccc1CO)S(=O)(=O)c1ccc(C)cc1	–
40	CCCC(C)N(c1cc(Cl)ccc1CO)S(=O)(=O)c1ccc(C)cc1 (centres undefined)	–
720	CCCC(C)N(c1cc(Cl)ccc1CO)S(=O)(=O)c1ccc(C(C)C)cc1 (centres undefined)	–
360	CCCC(C)N(c1cc(Cl)ccc1CO)S(=O)(=O)c1ccc(CC)cc1 (centres undefined)	–
1200	CCCC(C)N(c1cc(Cl)ccc1CO)S(=O)(=O)c1cccc(C)c1 (centres undefined)	–

Reference: ChEMBL document CHEMBL1149579, “N-(5-chloro-2-(hydroxymethyl)-N-alkyl-arylsulfonamides as gamma-secretase inhibitors” (Bioorg Med Chem Lett, 2007)
